The values below come from PMC11047392, “A Physiological Approach to Explore How Thioredoxin–Glutathione Reductase (TGR) and Peroxiredoxin (Prx) Eliminate H2O2 in Cysticerci of Taenia” (Antioxidants, 2024).

Molecules are shown by their SMILES.

For orientation: Km means the concentration of substrate that gives half-maximal velocity.

The test addresses T1, TsPrx1 (Taenia solium, UniProt Q2TP88).
T1 construct: recombinant, pET-23a(+) NdeI/XhoI, E. coli BL21 Codon Plus, His tag (printed as amino terminal), 195 residues, ~22 kDa
Description: NADPH oxidation at […] nm, coupled assay with TsTrx and TcTGR. It counts as biochemical. Conditions: 150 μM NADPH, 60 μM TsTrx, 11.2 nM TcTGR, 1.25 μM TsPrx1, pH 7.8, 25 °C.

T1 sequence (Q2TP88 entry or part of it): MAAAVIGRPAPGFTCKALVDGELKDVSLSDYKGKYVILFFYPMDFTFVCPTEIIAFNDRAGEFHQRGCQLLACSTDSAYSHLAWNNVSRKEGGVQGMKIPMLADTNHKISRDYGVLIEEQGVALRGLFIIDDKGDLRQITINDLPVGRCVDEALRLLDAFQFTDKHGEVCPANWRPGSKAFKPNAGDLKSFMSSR

`CC(C)(C)OO` [t-butyl hydroperoxide]: the Km came out at 18.1 µM.
